Test results from patent US8927254B2 (priority 2010, dated 2015).
≈ marks a conversion by molar mass, not a printed value. Read-outs that look alike come from different tables or passages of the source.

Assays:
[1] = system: P. furiosus trp deletion strains; type: cell-based, Pyrococcus furiosus
[2] = system: P. furiosus; experiment: microbe, parasite or virus in culture; type: cell-based; conditions: Pyrococcus furiosus

| Structure (SMILES) | sensitivity to 5-FAA ([1]; trpAB deletion strain, tight tryptophan auxotroph) | sensitivity to 5-FAA ([1]; trpE or trpD deletion strains, leaky tryptophan auxotrophs) | sensitivity to 5-FAA ([1]; trpF (PF1707) pop-out deletion strain, leaky auxotroph) | MIC [2] [mM] |
| --- | --- | --- | --- | --- |
| Nc1ccc(F)cc1C(=O)O [5-FAA, 5-fluoroanthranilic acid] | not sensitive | not sensitive | not sensitive |  |
| O=C(O)c1[nH]c(=O)[nH]c(=O)c1F [5-FOA, 5-fluoroorotic acid] |  |  |  | 8 (≈ 1390 µg/mL) |
| CCC(C)(C)C(=O)O[C@H]1C[C@@H](C)C=C2C=C[C@H](C)[C@H](CC[C@@H]3C[C@@H](O)CC(=O)O3)[C@H]21 [simvastatin] |  |  |  | 0.01 to 0.024 (≈ 4.19 to 10 µg/mL) |
